Experimental data reported in PubChem BioAssay (NCI).
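Assay format: 96-well plates, 48-hour exposure. TGI marks complete inhibition of growth.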

Columns and labels:
Experiment in all cases: growth of human tumour cells (NCI), 48 h
XF 498 CNS = test system: XF 498 CNS
SNB-78 CNS = test system: SNB-78 CNS
KM20L2 colon = test system: KM20L2 colon
DMS 114 small cell lung = test system: DMS 114 small cell lung
RXF-631 renal = test system: RXF-631 renal
M19-MEL melanoma = test system: M19-MEL melanoma
DLD-1 colon = test system: DLD-1 colon
MDA-N = test system: MDA-N
T-47D breast = test system: T-47D breast

| Compound | TGI (XF 498 CNS) [µM] | TGI (SNB-78 CNS) [µM] | TGI (KM20L2 colon) [µM] | TGI (DMS 114 small cell lung) [µM] | TGI (RXF-631 renal) [µM] | TGI (M19-MEL melanoma) [µM] | TGI (DLD-1 colon) [µM] | TGI (MDA-N) [µM] | TGI (T-47D breast) [µM] |
| --- | --- | --- | --- | --- | --- | --- | --- | --- | --- |
| Cc1nn(-c2ccccc2)c(-c2ccccc2[N+](=O)[O-])c1CC#N | > 100 | > 100 | > 100 | > 100 | > 100 | > 100 |  |  |  |
| COc1ccc2c(c1)[n+]([O-])c(/C(C)=N/NC(=O)CC#N)c[n+]2[O-] | > 100 | > 100 | > 100 | > 100 | > 100 | > 100 | > 100 |  |  |
| CCOC(=O)[C@H]1Nc2ccc(OC)cc2C2c3ccccc3CC21 (stereo partly drawn) | > 100 | > 100 | > 100 | > 100 | > 100 | > 100 | > 100 |  |  |
| Cc1c2cc[n+](C)cc2c(C)c2c1[nH]c1ccc(O)c(OCC(F)(F)F)c12 | 10.6 | 4.96 | > 55 | 8.04 | 15.4 | 11.8 | 44.4 |  |  |
| CCN(CC)c1ccc2c(c1)Nc1cc(=C(C#N)C#N)c3ccccc3c1=N2 | > 100 | > 100 | > 100 | > 100 | > 100 | > 100 | > 100 |  |  |
| O=C1C2Cc3ccccc3CN2C(=O)N1CCN1CCCC1 (stereo not drawn) | > 100 |  | > 100 | > 100 | > 100 | > 100 | > 100 |  |  |
| CCOC(=O)COS(=O)(=O)C(F)(F)F | > 100 | > 100 | > 100 | 31.7 | > 100 | > 100 | > 100 |  |  |
| CCOC(=O)C(=O)Nc1c(C(C)C)cccc1C(C)C | > 100 | > 100 | > 100 | > 100 | > 100 | > 100 | > 100 |  |  |
| O=Cc1ccc(-c2cccs2)s1 | 11.5 | > 100 | > 100 | > 100 | 12.9 | > 100 | > 74.9 | > 100 | > 100 |
| O=C1CCC(O)=C1O | > 100 |  | > 100 | > 100 | > 100 | > 100 | > 100 |  |  |
| CCOc1ccccc1NC(=O)CCc1nc(=S)[nH][nH]1 |  | > 100 |  | > 100 | > 100 | > 100 | > 100 |  |  |
| C=C=C(C(=O)OC)S(=O)c1ccc([N+](=O)[O-])cc1[N+](=O)[O-] (stereo not drawn) | > 71.2 |  | 63.8 | 45.6 | > 69.7 | 62 | 29.7 |  |  |
| CN[C@@H]1C[C@H]2O[C@@](C)([C@@H]1OC)n1c3ccccc3c3c4c(c5c6ccccc6n2c5c31)C(=O)N[C@@H]4O | 0.463 | 0.225 | 2.53 | 1.58 |  | 4.99 | 15 | 1.6 |  |
| CCOC(=O)CC1NC(=O)CS1 (stereo not drawn) |  | > 100 | > 100 | 57.8 | > 100 | > 100 | > 100 |  |  |
